This is an account of results in patent US11000482B2, “Fabrication of a suramin-loaded nanoparticle and its application” (UNIVERSITY OF SOUTH CAROLINA, priority 2018, dated 2021).

Series [1] is described as follows: In vitro release kinetics by dialysis in PBS. The class given is physicochemical. The conditions noted are these: within 1 hour, free drug. On the procedure:
Two milliliters of GCS-SM/DOX NPs were loaded in dialysis bags (MWCO: 6-8 KDa, Spectrum laboratories) and were put into 25 mL of PBS (pH 7.4, 100 mM) at 37° C. under continuous stirring. At predesigned time points, 1 mL of media was withdrawn. Concentrations of SM or DOX were determined by UV-Vis spectrometer (Beckman, DU650) at 312 nm and 480 nm, respectively. All experiments were carried out in triplicate independently.

In series [2] the test system is MDA-MB-231 cells. The series is described as follows: Cellular uptake and subcellular distribution of DOX (FACS, confocal, cell fractionation). The format is cell-based, human. The procedure:
Cellular uptake of GCS-SM/DOX NPs was quantified by flow cytometry and confocal microscopy. The intracellular distribution of the DOX was measured by cell fraction assay. MDA-MB-231 cells were seeded in 12 well plates at 200,000 cells/well and treated with DOX or GCS-SM/DOX NPs at the DOX concentration of 1 μM for 3 hours. Afterwards, cells were washed 3 times with cold PBS to remove un-bound DOX or nanoparticles. Cells were collected, fixed in 4% formaldehyde, and analyzed by FACS (BD Accuri C6, BD Biosciences).
To further investigate the uptake behaviors of nanoparticles, confocal microscopy was employed. MDA-MB-231 cells were seeded in petri dishes and treated with DOX or GCS-SM/DOX NPs at a DOX concentration of 1 μg/mL. After 3 hours of co-incubation, cells were washed 3 times and images were taken with a Zeiss 710 LM confocal microscope.
GCS-SM/DOX NPs were incubated with MDA-MB-231 cells at 37° C. for 1 hour. Cells were washed 3 times, then collected by scraping. Cells were subjected to subcellular fractionation after the treatment. […] DOX uptake amount was quantified by the fluorescent intensity at the excitation at 485 nm with the emission at 585 nm. The protein concentration of cytosol and nuclear fraction were quantified by BCA assay kit.

Series [3] concerns MDA-MB-231 cells. The series is described as follows: MTT cell viability assay with combination index analysis. The class given is cell-based, human. The procedure: The anticancer activities of the combination of DOX and SM were investigated with an MTT colorimetric assay. Cells with or without a/b FGF treatment were seeded in 96-well plates at an initial density of 20,000 cells/well. After 24 hours of incubation, the medium was replaced with 150 μL of fresh medium containing different treatments, including DOX, SM, and the combination of DOX and SM, and continued to be incubated for an additional 24 hours or 48 hours. Afterwards, the media were replaced with 100 μL fresh media containing 1 mg/mL MTT reagent and incubated for another 4 hours. The formed MTT crystals were dissolved with a stop solution and the final optical density of the medium was measured using a microplate reader (ELX808, Bio-Tech Instrument, Inc.) at λ=595 nm. A combination index (CI) analysis based on the Chou-Talalay method was performed using CalcuSyn software.
For orientation: Tetrazolium assays rely on reduction of a dye to a coloured formazan, in cell work by metabolically active cells.

For series [4], the system named is MDA-MB-231 cells. The series is described as follows: Wound healing (cell migration) assay. The conditions noted are these: MDA-MB-231 pretreated with a/b FGF, live cell imaging. The format is cell-based, human. On the procedure:
The migration of breast cancer cells was evaluated with a wound healing assay. Living videos of cell migration in a 24-well plate were acquired with a Zeiss 710 LM confocal microscope. MDA-MB-231 cells were pretreated with a/b FGF for 24 hours. After that, a wound was created by scraping the cell monolayer in a straight line with a p200 tip, and cell debris was removed by washing with PBS three times. Cells were incubated with different treatments and allowed to grow in a 37° C. chamber with 5% CO2 for 24 hours. Videos were taken using a confocal microscope with a transmittance channel continuously at 10× magnification.

The test system of series [5] is MDA-MB-231 cells. Briefly: Transwell Matrigel cell invasion assay. The class given is cell-based, human. The note with it: 40 μM SM, 16 hours; control 952. The procedure:
BD cell culture inserts with a pore size of 8 μm (BD, Biosciences) were pre-coated with 100 μL of Matrigel at the concentration of 0.2 mg/mL (dilution from BD Matrigel stock 10 mg/mL with coating buffer). MDA-MB-231 cells were seeded at a density of 70,000 cells per 50 μL in the inserts in an FBS-free DMEM medium. SM or GCS-SM NPs was then added to the inserts together with 50 μL serum free medium. Each lower chamber was supplied with 1.2 mL 10% FBS containing medium supplemented with different treatments that were the same as each respective top chamber. After 16 hours of incubation, the inserts were washed with PBS and fixed with methanol. Subsequently, cells were stained with hematoxylin and washed twice with PBS. The membrane in each of the inserts was then cut and mounted onto a coverslip, and the cell number was counted with a light microscope under 10× magnification. Each well was imaged at 5 different fields, and the invasion rate was expressed by the average number of cells per microscopic field.

Series [6] has as its system Human umbilical vein endothelial cells (HUVECs). Briefly: Endothelial tube formation assay. The format is cell-based. The conditions noted are these: HUVEC on Geltrex. The procedure:
Human umbilical vein endothelial cells (HUVECs) were cultured and maintained in a complete EGM Medium. Cells were stained with Celltracker Deep red (1 μM) for 30 minutes prior to the experiment. One hundred and fifty microliters (μL) of Geltrex® (Thermofisher) was added to each well in a 24-well plate and allowed to be polymerized for 30 minutes at 37° C. HUVEC cells were seeded in each well at a density of 2×10^5 cells/mL. SM, GCS, and GCS-SM NPs at concentrations of 10 μM and 20 μM were mixed with cells prior to seeding in the coated gel layer. The tube formation was photographed at 6 hours and 20 hours with an inverted phase contrast microscope (Canon Powershot A640) in a randomly selected field under 10× magnification, and the number of formed tubes and length of the tubes were quantified manually by Image J. Fluorescent images of cells were photographed by Zeiss 710 LM confocal microscope under 10× magnification.

The next series deals with MDA-MB-231/Luc-GFP cells. The series is described as follows: Breast cancer lung metastasis mouse model (tail vein MDA-MB-231/Luc-GFP). The format is in vivo, Female athymic mice (nu/nu). The procedure: All animal experiments were conducted in accordance with NIH regulations and approved by the Institutional Animal Care and Use Committee of the University of South Carolina. Female athymic mice at the age of 6 to 8 weeks (nu/nu) were obtained from Jackson laboratory. […] Mice were then randomly divided into 5 groups and received the following treatments: 1) saline only; 2) SM at the dose of 3.5 mg/kg once per week; 3) free SM and DOX at the dose of 3.5 mg/kg of SM and 0.5 mg/kg of DOX once per week; 4) GCS-SM NPs at the dose of 3.5 mg/kg of SM once per week; 5) GCS-SM/DOX NPs at the dose of 3.5 mg/kg of SM and 0.5 mg/kg of DOX (molar ratio of SM to DOX is 17:1) once per week. The whole treating procedure lasted for two months and the progression of tumors was monitored every week by luminescence with an IVIS Lumia system after i.v. injection of luciferin (30 mg/mL, 50 μL). Bodyweights of the mice were recorded at the same time. At the endpoint of each mouse, organs were isolated and collected. The weights of the lungs were recorded. Fluorescent images of the lungs were also captured. The collected organs were fixed in 10% neutralized formalin solution and embedded in paraffin.

Series [7] can be described thus: Histology (H&E) of lung, liver, kidney and TEM of heart of treated mice. The class given is in vivo, Female athymic mice (nu/nu). The procedure:
All animal experiments were conducted in accordance with NIH regulations and approved by the Institutional Animal Care and Use Committee of the University of South Carolina. Female athymic mice at the age of 6 to 8 weeks (nu/nu) were obtained from Jackson laboratory. MDA-MB-231/Luc-GFP cells were implanted by tail vein injection (2×10^6 cells in 100 μL PBS). Mice were then randomly divided into 5 groups and received the following treatments: 1) saline only; 2) SM at the dose of 3.5 mg/kg once per week; 3) free SM and DOX at the dose of 3.5 mg/kg of SM and 0.5 mg/kg of DOX once per week; 4) GCS-SM NPs at the dose of 3.5 mg/kg of SM once per week; 5) GCS-SM/DOX NPs at the dose of 3.5 mg/kg of SM and 0.5 mg/kg of DOX (molar ratio of SM to DOX is 17:1) once per week. The whole treating procedure lasted for two months and the progression of tumors was monitored every week by luminescence with an IVIS Lumia system after i.v. injection of luciferin (30 mg/mL, 50 μL). Bodyweights of the mice were recorded at the same time. At the endpoint of each mouse, organs were isolated and collected. The weights of the lungs were recorded. Fluorescent images of the lungs were also captured. The collected organs were fixed in 10% neutralized formalin solution and embedded in paraffin.
Tissue sections of 5 μm thickness were obtained from the formalin fixed, paraffin embedded tissue blocks with a microtome. […]

Series [8] relates to CD31 stained microvessels in tumor tissues. The series is described as follows: CD31 immunohistochemistry of tumor microvessels. The class given is in vivo, Female athymic mice (nu/nu). The note with it: CD31 IHC. The procedure: Tissue sections of 5 μm thickness were obtained from the formalin fixed, paraffin embedded tissue blocks with a microtome. The standard hematoxylin and eosin staining was performed in the lung, liver and kidney tissue sections of each group. To study the tumor neovasculature, CD31 IHC was applied to identify the intra-tumor blood vessel distribution. The section was deparaffinized and treated for 30 minutes with 0.5 M Tris buffer (pH 10) at 95° C. for antigen retrieval. Sections were blocked in 5% goat serum for 20 min at room temperature. The sections were blocked with peroxidase block for 5 minutes and incubated with a primary antibody (rabbit polyclonal anti-CD31 antibody) diluted with 1% BSA (1:50) for 1 hour at room temperature, followed by the staining with peroxidase labelled polymer for 30 minutes at room temperature. The sections were then developed with the substrate-DAB for 5 minutes at room temperature and counterstained with Gill's Hematoxylin for 10 seconds. The slides were mounted with ProLong® Gold Antifade Mountant and imaged at 40× magnification with a microscope.

The subject of the next series is human prostate PC3 cells. The conditions noted are these: in the presence of doxorubicin; cited from earlier work.

Molecules are shown by their SMILES.

The IC50 is the point on the concentration scale where inhibition reaches its midpoint.

Take `COc1cccc2c1C(=O)c1c(O)c3c(c(O)c1C2=O)C[C@@](O)(C(=O)CO)C[C@@H]3O[C@H]1C[C@H](N)[C@H](O)[C@H](C)O1` [DOX, doxorubicin]: the “release of free DOX” value in series [1] is “about 75%”. In addition, in the series with MDA-MB-231 cells [2] (MDA-MB-231 pretreated with a/b FGF, confocal/FACS, 1-6 hours), the DOX cellular uptake entry is listed as “entered cells much more slowly than GCS-SM/DOX NPs”. Besides, in the series with MDA-MB-231 cells [2] (confocal, after 3 hours of treatment), the “subcellular localization of DOX” value was “still stayed in the cytosol”. For the same compound, in the series with MDA-MB-231 cells [3] (SM 20 μM or 100 μM, presence of a/b FGF), the “cytotoxicity of DOX on further increase of SM” value was “did not additionally boost its cytotoxicity”. Further, the “cytotoxicity of DOX on addition of SM” value with MDA-MB-231 cells [3] (addition of 10 μM SM, presence of a/b FGF) is given as “greatly enhanced”.

For `Cc1ccc(C(=O)Nc2ccc(S(=O)(=O)O)c3cc(S(=O)(=O)O)cc(S(=O)(=O)O)c23)cc1NC(=O)c1cccc(NC(=O)Nc2cccc(C(=O)Nc3cc(C(=O)Nc4ccc(S(=O)(=O)O)c5cc(S(=O)(=O)O)cc(S(=O)(=O)O)c45)ccc3C)c2)c1` [SM, 8,8′-[carbonylbis[imino-3,1-phenylenecarbonylimino (4-methyl-3,1-phenylene)carbonylimino]]bisnaphthalene-1,3,5-trisulphonic acid], in the series with MDA-MB-231 cells [4], the “inhibitory effect on cell migration” value is “only slightly inhibited cell migration”. In addition, the “number of invaded MDA-MB-231 cells in each view area” value with MDA-MB-231 cells [5] was determined as 718. Further, the “tube formation ability of HUVECs” value in series [6] is reported as “significantly inhibited”. Besides, the cytotoxicity entry in the series with MDA-MB-231 cells [3] (200 μM SM, 24 hours, MDA-MB-231) is reported as “no cytotoxicity was observed”. The IC50 in the series on MDA-MB-231 cells [3] (Homo sapiens, 48 hours of treatment, MDA-MB-231) was 200 µM. Moreover, the “inhibition of cell proliferation (cytotoxicity)” value with MDA-MB-231 cells [3] (concentrations up to 200 μM, within 24 h) was “neither SM nor GCS-SM NP inhibited cell proliferation”. Also, the “survival rates versus control” value with MDA-MB-231/Luc-GFP cells (Kaplan-Meier at 12 weeks) is on record as “moderately increased survival rates”. For the same compound, the median survival time in the series on MDA-MB-231/Luc-GFP cells (Kaplan-Meier at 12 weeks, control 64.5 days) is given as 76.5 days. In addition, the “proliferation of cancer cells and metastasis (whole-body luminescence)” value in the series on MDA-MB-231/Luc-GFP cells (SM 3.5 mg/kg and/or DOX 0.5 mg/kg once per week, imaging over 6 weeks) is “slowed down compared to the control”. Moreover, the body weight change entry with MDA-MB-231/Luc-GFP cells (after 8 weeks of treatment) is “did not cause significant weight loss”. Further, the “effect on lung weight” value in the series on MDA-MB-231/Luc-GFP cells (compared to control group) is on record as “Neither the SM nor the GCS-SM NP groups showed significant effect on lung weight”. In series [7], the kidney histology result was “normal kidney histologic structure”; the “lung histology: tumor area” value is “mild reduction in the occupied area ratio between the tumorous tissue and normal tissue”. Besides, in series [8], the “formation of new microvessels in tumor tissues” value is recorded as “did not decrease the formation of new blood vessels”. For the same compound, the “concentration reversing FGF-induced drug resistance” value in the series with human prostate PC3 cells was 1 to 17 µM.
